# Source: patent US7446091B2, “Methods and preparations for curing clinically ill patients” (Novo Nordisk A/S, priority 2000, dated 2008)
# Several values for one entry are separate records, joined by “and”; a condition that tells them apart may be missing. Equal values may be shown once.
# How the values were obtained:
# [1] = system: mechanically ventilated, adult patients admitted to the intensive care unit (ICU); test: Example 2: glycemia control (whole blood glucose); assay type: in vivo
# Procedure: A blood sample was taken upon ICU admission and daily at 06:00 h until discharge from ICU or death. On-admission and daily morning, whole blood glucose level as well as daily maximal and minimal glycemia were analysed. Analyses on the 06:00 h sample also included clinical chemistry, hematology and markers of inflammation.
# [2] = system: patients treated in the ICU; test: Example 1: prospective clinical study, weekly EMG screening for CIPNP in long-stay ICU patients; assay type: in vivo, human; conditions: for CIPNP-free time on the ICU: long-stay patients
# Procedure: Between Feb. 2 and Apr. 25, 2000, 400 patients were included in the study. […] All other treatments, including feeding regimens, were according to standing orders currently applied within the ICU. Exclusion criteria were age <18y, pregnancy and not being intubated at admission.
# When patients were still treated in the ICU after 7 days, a weekly EMG examination was performed to screen for the presence of CIPNP. The EMGs were always interpreted by the same expert in electrophysiology. In order to accurately assess ICU stay, which is often determined by other factors than the patient's condition—e.g. bed availability on the wards—“end of ICU stay” was defined as the day on which the attending physician considers the patient to be “ready for discharge”.
substance,measurement,setting,value
insulin,Mean 06:00 h blood glucose level when on insulin (mmol/L) (mean ± SD),[1]; IIS,5.7 ± 1.0 mmol/L
same,Patients who never exceeded 6.1 mmol/L after treatment initiation,[1]; IIS,48%
same,Patients who occasionally peaked over 8.4 mmol/L,[1]; IIS,17%
same,Patients with blood glucose levels that failed to go below 6.1 mmol/L within 48 h,[1]; IIS,0.1%
same,Consequences of hypoglycemia events,[1]; IIS and RIS,never induced serious symptoms such as hemodynamic deterioration or epilepsia
same,Mean 06:00 h blood glucose level (mmol/L) (mean ± SD),"[1]; IIS, N = 765",5.8 ± 1.0 mmol/L and 5.7 ± 1.0 mmol/L
same,Mean 06:00 h blood glucose level when on insulin (mmol/L) (mean ± SD),[1]; RIS,9.6 ± 1.8 mmol/L
same,"Patients in whom glycemia transiently fell below 2.3 mmol/L, number",[1]; RIS,6
same,Mean 06:00 h blood glucose level (mmol/L) (mean ± SD),"[1]; RIS, N = 783",8.5 ± 1.8 mmol/L
same,Long-stay ICU patients with a positive EMG for CIPNP (% of the long stayers),[2]; intensive insulin group,39%
same,Number of positive EMGs for CIPNP per patient (mean ± SD),[2]; intensive insulin group,0.9±1.8
same,Number of positive EMGs for CIPNP per patient (median),[2]; intensive insulin group,zero
same,"Long-stay ICU patients with a positive EMG for CIPNP at any time during the ICU stay, number","[2]; intensive insulin group, 38 long-stay patients",Fifteen
same,"ICU-mortality, difference between the two treatment groups","[2]; intensive vs restrictive insulin schedule, P=0.4",not detectably different
same,CIPNP-free time on the ICU,[2]; intensive insulin group,2.1±1.8 weeks
same,CIPNP-free time on the ICU,[2]; restrictive insulin group,1.1±1.2 weeks
same,Long-stay ICU patients with a positive EMG for CIPNP (% of the long stayers),[2]; restrictive insulin group,67%
same,Number of positive EMGs for CIPNP per patient (mean ± SD),[2]; restrictive insulin group,1.8±2.1
same,Number of positive EMGs for CIPNP per patient (median),[2]; restrictive insulin group,1
same,"Long-stay ICU patients with a positive EMG for CIPNP at any time during the ICU stay, number","[2]; restrictive insulin group, 45 long-stay patients",30
